# Measured values: US20230092359A1, “GEMFIBROZIL FORMULATION” (Polaryx Therapeutics, Inc., priority 2020, published 2023)
# Like-named read-outs stand apart in the source and are kept apart here.
# Experiments:
# [1] = XRPD form check after humidity stress; type: physicochemical
# Text: In an example, an L-arginine gemfibrozil salt was stressed for one day at 75% relative humidity.
# The observed peaks of the post-DVS salt were consistent with the pattern of peaks observed for an L-lysine gemfibrozil salt Material A prepared prior to exposure to increased relative humidities (FIG. 15).
# X-Ray Powder Diffraction (XRPD)—XRPD patterns were collected with a PANalytical X'Pert PRO MPD or PANalytical Empyrean diffractometers using an incident beam of Cu radiation produced using an Optix long, fine-focus source. An elliptically graded multilayer mirror was used to focus Cu Kα X-rays through the specimen and onto the detector. Prior to analysis, a silicon specimen (NIST SRM 640e) was analyzed to verify the observed position of the Si 111 peak is consistent with the NIST-certified position. A specimen of the sample was sandwiched between 3 μm thick films and analyzed in transmission geometry. A beam-stop, short antiscatter extension, and antiscatter knife edge were used to minimize the background generated by air. Soller slits for the incident and diffracted beams were used to minimize broadening from axial divergence. Diffraction patterns were collected using a scanning position-sensitive detector (X'Celerator) located […] from the specimen and Data Collector software v. 5.5.
# [2] = Thermogravimetric analysis (TGA); type: physicochemical
# Procedure: Thermogravimetric Analysis (TGA)—TG analysis was performed using a Mettler-Toledo TGA/DSC3+ analyzer. Temperature and enthalpy adjustments were performed using indium, tin, and zinc, and then verified with indium. The balance was verified with calcium oxalate. The sample was placed in an open aluminum pan. The pan was hermetically sealed, the lid pierced, then inserted into the TG furnace. A weighed aluminum pan configured as the sample pan was placed on the reference platform. The furnace was heated under nitrogen. The data acquisition parameters for the thermogram are determined.
# [3] = equivalent to 100 mg free form in 250 ml pH 7.3 artificial saliva, 37° C., 50 RPM
# Procedure: Dissolution experiments using the salt forms of gemfibrozil were performed using a VanKel VK7010 dissolution apparatus equipped with a VK750D heater/circulator. The 2 paddle method was used. Dissolution medium was 250 mL of artificial saliva, pH 7.30. The temperature was maintained at 37° C. The paddles were rotated at 50 RPM. […] Samples aliquots of 2 mL were taken at 5, 10, and 15 minutes and filtered immediately using a […] Nylon membrane syringe filter. Samples were analyzed by HPLC.
# [4] = Dynamic vapor sorption (DVS); type: physicochemical; set-up: key to Hysteresis: % change in weight (DVS sorption/desorption); conditions: for Hysteresis: in % (unit assumed); for state of post-DVS sample: after sorption/desorption cycle 5%-95%-5% relative humidity; for Desorp Mass Change: desorption; for gained moisture retained: following desorption from 95% to 5% relative humidity; for Sorp Mass Change: sorption
# Text: In an embodiment, ethanolamine gemfibrozil salt Form A has a low hygroscopicity below approximately 55% relative humidity, meaning less than 0.5% increases in weight below approximately 55% relative humidity, which may be determined using dynamic vapor sorption (DVS) to detect changes in weight of the salt in response to changes in relative humidity. […] Table 6 lists the percent change in weight of ethanolamine gemfibrozil salt Form A (Sorp Mass Change (%)) in 10% relative humidity increments from its initial weight at 5% relative humidity to its weight at 95% relative humidity.
# Dynamic Vapor Sorption (DVS)—Moisture sorption/desorption data were collected on a SMS Intrinsic Dynamic Vapor Sorption Analyzer. Sodium chloride and PVP were used as calibration standard. Samples were not dried prior to analysis. Sorption and desorption data were collected over a range from 5% to 95% relative humidity at 10% relative humidity increments under a nitrogen purge. The equilibrium criterion used for analysis was less than 0.0100% weight change in 5 minutes with a maximum equilibration time of 3 hours. Data were not corrected for the initial moisture content of the samples.
# physchem = conditions: pH 7.3, fassgf or other biorelevant, thermodynamic from solid
# Procedure: The solution was then mixed by vortexing or sonicating, until complete dissolution was observed.
# Kinetic Solubilities/Visual Solubility Assessment—Weighed samples were treated with aliquots of solvent at ambient temperature unless otherwise indicated. Samples were typically sonicated between additions to facilitate dissolution. Complete dissolution was observed through visual inspection. Solubilities were calculated based on the total amount of solvent added to achieve complete dissolution and may be greater than the value reported due to incremental solvent addition and the inherent kinetics of dissolution. […] These values are approximate. These values may also over-represent the amount of solvent required given that solvent was added incrementally. Approximately 10 mg of gemfibrozil salt was weighed into a vial. Artificial saliva was added to the vial until complete dissolution was observed. Each volume addition was followed by vortex mixing or sonication and observation on the presence of solids was noted.
# Solubility descriptors were used as follows—Practically insoluble refers to a compound that is soluble at less than 0.1 mg/ml in solution. […] Slightly soluble, refers to a compound that is soluble in an aqueous solution from 1 mg/ml to 10 mg/ml. Sparingly soluble, refers to a compound that is soluble in an aqueous solution from 10 mg/ml to 30 mg/ml. […]
# [5] = cited from earlier work
# [6] = Dissolution of free-form gemfibrozil in artificial saliva (USP <711> apparatus 2, HPLC); type: physicochemical; conditions: 4 hours; 600 mg in 900 mL pH 7.3 artificial saliva, 100 rpm, 37° C. (FIG. 1)
# Procedure: USP <711> dissolution apparatus 2 (paddle method) was used. Dissolution medium was 900 mL of artificial saliva, pH 7.30. The temperature was maintained at 37° C. The paddles were rotated at 100 RPM. Six-hundred milligrams of gemfibrozil was added into each vessel at t=0. Samples aliquots of 2 mL were taken at 0.25, 0.5, 1, 2, 3, and 4 hours and filtered immediately using a 0.45 μm Nylon membrane syringe filter, whereby the filtrate was diluted at a 1:1 ratio with methanol and then vortexed. Samples were analyzed by HPLC.
# [7] = equilibrium, 1.5 ml pH 7.3 artificial saliva, 16 hours
# [8] = sorption from 5% to 85% relative humidity
# [9] = sorption from 85% to 95% relative humidity
smiles,measurement,setting,value
Cc1ccc(C)c(OCCCC(C)(C)C(=O)O)c1.N=C(N)NCCCC(N)C(=O)O [Arginine Material A],form change by XRPD,[1]; stressed for one day at 75% relative humidity,did not undergo a form change
same,temperature until which weight does not decrease (may be the onset of decomposition),[2],approximately 207 °C
same,weight loss,[2]; between 44° C. and 125° C.,approximately 0.1%
same,Average % Gemfibrozil dissolved,[3]; 5 min,96.64%
same,Average % Gemfibrozil dissolved,"[3]; 5 min, listed as L-arginine gemfibrozil salt Material A",96.6%
same,Average % Gemfibrozil dissolved,[3]; 10 min,94.40%
same,Average % Gemfibrozil dissolved,[3]; 15 min,94.27%
same,Observations,[7],No excess solids
same,Hysteresis,[4]; Target RH 15.0%,6.09
same,Hysteresis,[4]; Target RH 25.0%,6.79
same,Hysteresis,[4]; Target RH 35.0%,7.73
same,Hysteresis,[4]; Target RH 45.0%,9.27
same,Hysteresis,[4]; Target RH 55.0%,11.46
same,Hysteresis,[4]; Target RH 65.0%,14.60
same,Hysteresis,[4]; Target RH 75.0%,18.97
same,Hysteresis,[4]; Target RH 85.0%,25.96
same,state of post-DVS sample,[4],deliquesced
same,Desorp Mass Change,[4]; Target RH 5.0%,5.55%
same,Desorp Mass Change,[4]; Target RH 15.0%,6.12%
same,Desorp Mass Change,[4]; Target RH 25.0%,6.85%
same,Desorp Mass Change,[4]; Target RH 35.0%,7.89%
same,Desorp Mass Change,[4]; Target RH 45.0%,9.51%
same,Desorp Mass Change,[4]; Target RH 55.0%,11.75%
same,Desorp Mass Change,[4]; Target RH 65.0%,14.95%
same,Desorp Mass Change,[4]; Target RH 75.0%,19.47%
same,Desorp Mass Change,[4]; Target RH 85.0%,26.79%
same,Desorp Mass Change,[4]; Target RH 95.0%,45.96%
same,gained moisture retained,[4],approximately 5.6%
same,percent increase in mass,[4]; [8],approximately 0.8%
same,percent change in mass,[4]; [9],45.1%
same,Sorp Mass Change,[4]; Target RH 5.0%,0.00%
same,Sorp Mass Change,[4]; Target RH 15.0%,0.03%
same,Sorp Mass Change,[4]; Target RH 25.0%,0.06%
same,Sorp Mass Change,[4]; Target RH 35.0%,0.16%
same,Sorp Mass Change,[4]; Target RH 45.0%,0.25%
same,Sorp Mass Change,[4]; Target RH 55.0%,0.28%
same,Sorp Mass Change,[4]; Target RH 65.0%,0.35%
same,Sorp Mass Change,[4]; Target RH 75.0%,0.50%
same,Sorp Mass Change,[4]; Target RH 85.0%,0.83%
same,Sorp Mass Change,[4]; Target RH 95.0%,45.96%
Cc1ccc(C)c(OCCCC(C)(C)C(=O)O)c1.NCCO [Ethanolamine Form A],temperature until which weight does not decrease (may be the onset of decomposition),[2],approximately 140 °C
same,Average % Gemfibrozil dissolved,[3]; 5 min,97.30%
same,Average % Gemfibrozil dissolved,"[3]; 5 min, listed as ethanolamine gemfibrozil salt Form A",97.3%
same,Average % Gemfibrozil dissolved,[3]; 10 min,94.80%
same,Average % Gemfibrozil dissolved,[3]; 15 min,95.84%
same,Observations,pH 7.3,No excess solids
same,Hysteresis,[4]; Target RH 15.0%,2.60
same,Hysteresis,[4]; Target RH 25.0%,3.56
same,Hysteresis,[4]; Target RH 35.0%,4.87
same,Hysteresis,[4]; Target RH 45.0%,6.67
same,Hysteresis,[4]; Target RH 55.0%,9.19
same,Hysteresis,[4]; Target RH 65.0%,1.78
same,Hysteresis,[4]; Target RH 75.0%,0.64
same,Hysteresis,[4]; Target RH 85.0%,4.16
same,state of post-DVS sample,[4],deliquesced
same,Desorp Mass Change,[4]; Target RH 5.0%,1.92%
same,Desorp Mass Change,[4]; Target RH 15.0%,2.60%
same,Desorp Mass Change,[4]; Target RH 25.0%,3.56%
same,Desorp Mass Change,[4]; Target RH 35.0%,4.88%
same,Desorp Mass Change,[4]; Target RH 45.0%,6.70%
same,Desorp Mass Change,[4]; Target RH 55.0%,9.29%
same,Desorp Mass Change,[4]; Target RH 65.0%,12.93%
same,Desorp Mass Change,[4]; Target RH 75.0%,18.56%
same,Desorp Mass Change,[4]; Target RH 85.0%,31.49%
same,Desorp Mass Change,[4]; Target RH 95.0%,45.05%
same,gained moisture retained,[4],approximately 2%
same,percent increase in mass,[4]; sorption from 5% to 55% relative humidity,approximately 0.1%
same,percent change in mass,[4]; sorption from 55% to 95% relative humidity,44.9%
same,Sorp Mass Change,[4]; Target RH 5.0%,0.00%
same,Sorp Mass Change,[4]; Target RH 15.0%,0.00%
same,Sorp Mass Change,[4]; Target RH 25.0%,0.00%
same,Sorp Mass Change,[4]; Target RH 35.0%,0.01%
same,Sorp Mass Change,[4]; Target RH 45.0%,0.03%
same,Sorp Mass Change,[4]; Target RH 55.0%,0.10%
same,Sorp Mass Change,[4]; Target RH 65.0%,11.14%
same,Sorp Mass Change,[4]; Target RH 75.0%,17.93%
same,Sorp Mass Change,[4]; Target RH 85.0%,27.33%
same,Sorp Mass Change,[4]; Target RH 95.0%,45.05%
"Cc1ccc(C)c(OCCCC(C)(C)C(=O)O)c1 [Free Form, 5-(2,5-dimethylphenoxy)-2,2-dimethyl-pentanoic acid]",solubility,physchem,< 1100 µg/mL
same,solubility,[5]; in DMSO,~16000 µg/mL
same,solubility,[5]; in a 1:1 solution of ethanol:PBS,approximately 0.5 mg/mL
same,solubility,[5]; in ethanol,approximately 30 mg/ml
same,solubility,[5]; in water,approximately 0.03 mg/ml
same,average % of free-form gemfibrozil dissolved,[6],78%
Cc1ccc(C)c(OCCCC(C)(C)C(=O)O)c1.NCCCCC(N)C(=O)O [Lysine Material A],form change by XRPD,"[1]; post-DVS sample, exposure to increased relative humidity",did not undergo a form change
same,temperature until which weight does not decrease (may be the onset of decomposition),[2],approximately 165 °C
same,Average % Gemfibrozil dissolved,[3]; 5 min,96.29%
same,Average % Gemfibrozil dissolved,"[3]; 5 min, listed as L-lysine gemfibrozil salt Material A",96.3%
same,Average % Gemfibrozil dissolved,[3]; 10 min,93.51%
same,Average % Gemfibrozil dissolved,[3]; 15 min,94.67%
same,Observations,[7],No excess solids
same,Hysteresis,[4]; Target RH 15.0%,2.48
same,Hysteresis,[4]; Target RH 25.0%,3.61
same,Hysteresis,[4]; Target RH 35.0%,2.69
same,Hysteresis,[4]; Target RH 45.0%,2.54
same,Hysteresis,[4]; Target RH 55.0%,2.30
same,Hysteresis,[4]; Target RH 65.0%,2.09
same,Hysteresis,[4]; Target RH 75.0%,3.16
same,Hysteresis,[4]; Target RH 85.0%,13.47
same,state of post-DVS sample,[4],deliquesced
same,Desorp Mass Change,[4]; Target RH 5.0%,2.09%
same,Desorp Mass Change,[4]; Target RH 15.0%,2.53%
same,Desorp Mass Change,[4]; Target RH 25.0%,2.81%
same,Desorp Mass Change,[4]; Target RH 35.0%,3.09%
same,Desorp Mass Change,[4]; Target RH 45.0%,3.45%
same,Desorp Mass Change,[4]; Target RH 55.0%,4.09%
same,Desorp Mass Change,[4]; Target RH 65.0%,5.25%
same,Desorp Mass Change,[4]; Target RH 75.0%,9.49%
same,Desorp Mass Change,[4]; Target RH 85.0%,27.95%
same,Desorp Mass Change,[4]; Target RH 95.0%,38.97%
same,gained moisture retained,[4],approximately 2.1%
same,percent increase in mass,[4]; sorption from 5% to 25% relative humidity,approximately 0.2%
same,percent increase in mass,[4]; [8],approximately 14.5%
same,percent change in mass,[4]; [9],approximately 24.5%
same,Sorp Mass Change,[4]; Target RH 5.0%,0.00%
same,Sorp Mass Change,[4]; Target RH 15.0%,0.04%
same,Sorp Mass Change,[4]; Target RH 25.0%,0.19%
same,Sorp Mass Change,[4]; Target RH 35.0%,0.40%
same,Sorp Mass Change,[4]; Target RH 45.0%,0.91%
same,Sorp Mass Change,[4]; Target RH 55.0%,1.79%
same,Sorp Mass Change,[4]; Target RH 65.0%,3.15%
same,Sorp Mass Change,[4]; Target RH 75.0%,6.32%
same,Sorp Mass Change,[4]; Target RH 85.0%,14.48%
same,Sorp Mass Change,[4]; Target RH 95.0%,38.97%
